From publication PMC2248166, “Quantitative peptide binding motifs for 19 human and mouse MHC class I molecules derived using positional scanning combinatorial peptide libraries” (Immunome Research, 2008)

Legend:
[1] = target: HLA A*3001 (Homo sapiens, UniProt P04439, D140H/D185E/E176W/F33S/G80R/H175R/K168Q/R138E/R41S); assay: biochemical; format: binding
[2] = target: HLA A*3201 (Homo sapiens, UniProt P04439, A270S/D101S/D185E/E176V/E277Q/F133L/G103R/G107R/G231S/H175R/I121M/I218V/I322F/K168Q/L105A/L300P/L318F/M331R/P208A/P217A/Q94H/R106L/R138Q/S129P/T104I/T323A/T345S/V100E/V321M/V358M); assay: biochemical; format: binding
[3] = target: HLA A*6802 (Homo sapiens, UniProt P04439, A269V/D140Y/D185E/E176V/E277Q/E87N/F33Y/G231S/I121R/I166T/I218V/L180W/L300P/L318F/N151K/P208A/P217A/Q86R/R138H/R169H/S129P/T345S/V36M); format: binding
[4] = target: HLA B*0702 (Homo sapiens, UniProt P01889); format: binding; details: positional scanning combinatorial 9-mer library; normalized to 1.0 for the best residue at each position
[5] = target: HLA B*0801 (Homo sapiens, UniProt P01889, A93T/A95T/D138N/E176V/E187T/K202T/Q94N/R180D/S35A/V36M/Y33D/Y91F); assay: biochemical; format: binding
[6] = target: HLA B*1501 (Homo sapiens, UniProt P01889, A329T/A93T/A95T/C349S/D201E/D98Y/E187L/E204Q/E69M/E70A/K202T/N87E/Q94N/R155S/R180W/S121R/S35A/S48A/V306I/V36M/Y140S/Y91S); assay: biochemical; format: binding
[7] = target: HLA B*1503 (Homo sapiens, UniProt P01889, A329T/A93T/A95T/C349S/D201E/D98Y/E187L/E204Q/K202T/N87E/Q94N/R155S/R180L/S121R/S35A/V306I/V36M/Y140S/Y91S); assay: biochemical; format: binding
[8] = target: HLA B*2705 (Homo sapiens, UniProt P01889, D138H/D201E/E176V/E204Q/G107R/H137Y/K202T/N104T/N87E/Q56L/Q94K/R106L/R155S/R180L/S101D/S121N/S48T/Y140D/Y33H/Y91C); format: binding; details: positional scanning combinatorial 9-mer library; normalized to 1.0 for the best residue at each position
[9] = target: HLA B*3501 (Homo sapiens, UniProt P01889, A329T/A93T/A95T/C349S/D201E/D98Y/E176V/E187L/E204Q/E69T/I218V/K202T/L119I/Q94N/R155S/R180L/S121R/S35A/S48A/T118I/V127L/V306I/V36M/Y140S/Y91F); format: binding
[10] = target: HLA B*5101 (Homo sapiens, UniProt P01889, A329T/A93T/A95T/C349S/D138N/D201E/D98Y/E187L/E204Q/E69T/G107R/I218V/K202T/L105A/L119W/N104I/Q94N/R106L/R155S/R180L/S101N/S121T/S35A/S48A/V306I/V36M/Y195H/Y91F); format: binding
[11] = target: HLA B*5301 (Homo sapiens, UniProt P01889, A329T/A93T/A95T/C349S/D201E/D98Y/E176V/E187L/E204Q/E69T/G107R/I218V/K202T/L105A/L119I/N104I/Q94N/R106L/R155S/R180L/S101N/S121R/S35A/S48A/T118I/V127L/V306I/V36M/Y140S/Y91F); format: binding
[12] = target: HLA B*5401 (Homo sapiens, UniProt P01889, A329T/C349S/D138N/D201E/E176V/E187T/E204Q/E69G/I76V/K202T/L119W/R155S/R180L/S121T/S35A/S48A/V127L/V306I/V36M/Y140L); format: binding
[13] = target: HLA B*5801 (Homo sapiens, UniProt P01889, A329T/C349S/D201E/D98Y/E176V/E187L/E204Q/E69T/G107R/I218V/I90N/K202T/L105A/L119I/N104I/N87E/Q89R/Q94S/R106L/R155S/R180L/R86G/S101N/S121R/S35A/S48A/T118I/V127L/V306I/V36M/Y140S/Y91M); format: binding
[14] = target: HLA B*5802 (Homo sapiens, UniProt P01889, A329T/C349S/D201E/D98Y/E176V/E187L/E204Q/E69T/G107R/I218V/I90N/K202T/L105A/N104I/N87E/Q89R/Q94S/R106L/R155S/R180L/R86G/S101N/S121W/S35A/S48A/V127L/V306I/V36M/Y140S/Y91M); format: binding
[15] = target: H-2 D^b (Mus musculus, UniProt P01899); format: binding
Chain of H-2 D^b (P01887 21-119): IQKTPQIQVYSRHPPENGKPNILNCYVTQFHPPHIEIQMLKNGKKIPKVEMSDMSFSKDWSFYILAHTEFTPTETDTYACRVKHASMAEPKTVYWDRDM
Chain of H-2 D^b (P01899 25-362): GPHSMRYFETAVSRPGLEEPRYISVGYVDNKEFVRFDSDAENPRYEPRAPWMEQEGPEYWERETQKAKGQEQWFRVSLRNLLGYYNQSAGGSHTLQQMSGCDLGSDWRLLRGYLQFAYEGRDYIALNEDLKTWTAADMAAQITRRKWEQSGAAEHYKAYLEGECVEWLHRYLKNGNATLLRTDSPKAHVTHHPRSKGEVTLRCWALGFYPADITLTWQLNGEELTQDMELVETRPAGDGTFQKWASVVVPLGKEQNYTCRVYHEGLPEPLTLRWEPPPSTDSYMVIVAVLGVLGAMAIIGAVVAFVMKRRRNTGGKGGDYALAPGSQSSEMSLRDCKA

[16] = target: H-2 D^d (Mus musculus, UniProt P01900); format: binding
Chain of H-2 D^d (P01900 whole entry, looked up): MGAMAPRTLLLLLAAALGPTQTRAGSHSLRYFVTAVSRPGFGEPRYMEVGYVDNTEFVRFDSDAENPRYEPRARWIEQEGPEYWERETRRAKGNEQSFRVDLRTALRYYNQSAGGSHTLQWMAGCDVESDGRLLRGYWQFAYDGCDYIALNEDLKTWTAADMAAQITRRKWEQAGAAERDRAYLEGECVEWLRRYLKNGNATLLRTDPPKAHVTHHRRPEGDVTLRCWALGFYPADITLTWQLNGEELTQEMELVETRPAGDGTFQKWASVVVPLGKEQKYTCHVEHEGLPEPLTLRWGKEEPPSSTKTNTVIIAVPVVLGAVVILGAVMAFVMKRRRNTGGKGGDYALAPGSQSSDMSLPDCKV

[17] = target: H-2 K^k (Mus musculus, UniProt P04223); format: binding
Chain of H-2 K^k (P01887 21-119): as the sequence (P01887 21-119) above
Chain of H-2 K^k (P04223 22-369): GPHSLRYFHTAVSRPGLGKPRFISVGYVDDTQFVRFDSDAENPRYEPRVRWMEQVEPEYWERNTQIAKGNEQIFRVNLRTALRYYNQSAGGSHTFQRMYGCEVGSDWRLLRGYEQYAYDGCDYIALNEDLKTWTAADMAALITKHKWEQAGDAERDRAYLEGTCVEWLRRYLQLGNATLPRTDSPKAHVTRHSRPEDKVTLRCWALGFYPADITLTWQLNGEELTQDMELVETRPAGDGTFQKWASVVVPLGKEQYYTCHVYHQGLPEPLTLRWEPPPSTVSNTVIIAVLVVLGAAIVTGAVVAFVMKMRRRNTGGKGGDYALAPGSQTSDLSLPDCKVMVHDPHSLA

[18] = target: HLA A*0201 (Homo sapiens, UniProt P04439, D140Y/D185E/D98H/E176V/E277Q/G131W/G231S/I119V/I121R/I166T/I218V/L300P/L318F/N151K/N90K/P208A/P217A/Q86G/Q94H/R138H/R169H/T345S); details: positional scanning combinatorial 9-mer library; normalized to 1.0 for the best residue at each position

Row | Sequence | Normalized average relative binding affinity (ARB), HLA A*3001 [1] | Normalized average relative binding affinity (ARB), HLA A*3201 [2] | Normalized average relative binding affinity (ARB), HLA A*6802 [3] | Normalized average relative binding affinity (ARB), HLA B*0702 [4] | Normalized average relative binding affinity (ARB), HLA B*0801 [5] | Normalized average relative binding affinity (ARB), HLA B*1501 [6] | Normalized average relative binding affinity (ARB), HLA B*1503 [7] | Normalized average relative binding affinity (ARB), HLA B*2705 [8] | Normalized average relative binding affinity (ARB), HLA B*3501 [9] | Normalized average relative binding affinity (ARB), HLA B*5101 [10] | Normalized average relative binding affinity (ARB), HLA B*5301 [11] | Normalized average relative binding affinity (ARB), HLA B*5401 [12] | Normalized average relative binding affinity (ARB), HLA B*5801 [13] | Normalized average relative binding affinity (ARB), HLA B*5802 [14] | Normalized average relative binding affinity (ARB), H-2 Db [15] | Normalized average relative binding affinity (ARB), H-2 Dd [16] | Normalized average relative binding affinity (ARB), H-2 Kk [17] | Normalized average relative binding affinity (ARB), HLA A*0201 [18]
1 | XKXXXXXXX [3064.0029] | 0.026 | 0.0079 | 0.011 | 0.0028 | 0.097 | 0.0091 | 0.29 | 0.0076 | 0.0078 | 0.022 | 0.0053 | 0.0038 | 0.014 | 0.045 | 0.052 | 0.093 | 0.0031 | 0.012
2 | XXQXXXXXX [3064.0054] | 0.014 | 0.45 | 0.12 | 0.19 | 0.062 | 0.30 | 0.062 | 0.12 | 0.27 | 0.20 | 0.13 | 0.055 | 0.15 | 0.098 | 0.098 | 0.012 | 0.42 | 0.20
3 | XNXXXXXXX [3064.0032] | 0.10 | 0.025 | 0.034 | 0.0028 | 0.16 | 0.052 | 0.032 | 0.0016 | 0.0078 | 0.022 | 0.0083 | 0.0018 | 0.012 | 0.20 | 0.11 | 0.018 | 0.0053 | 0.0062
4 | AXXXXXXXX [3064.0001] | 0.18 | 0.36 | 0.031 | 0.78 | 0.11 | 0.31 | 0.47 | 0.35 | 0.042 | 0.071 | 0.0057 | 0.014 | 0.33 | 0.065 | 0.14 | 0.20 | 0.18 | 0.11
5 | WXXXXXXXX [3064.0019] | 0.020 | 0.059 | 0.19 | 0.25 | 0.20 | 0.44 | 0.27 | 0.41 | 0.23 | 0.11 | 0.17 | 0.14 | 0.29 | 0.11 | 0.16 | 1.0 | 0.80 | 0.057
6 | XTXXXXXXX [3064.0037] | 0.77 | 1.0 | 0.63 | 0.014 | 0.038 | 0.29 | 0.026 | 0.0033 | 0.042 | 0.042 | 0.022 | 0.028 | 0.71 | 0.79 | 0.22 | 0.019 | 0.0085 | 0.038
